Measured values published in patent publication US11566007B2, “Ras inhibitors” (Revolution Medicines, Inc., priority 2019, dated 2023).

Assays:
[1] = test system: NCI-H358 cells (K-Ras G12C); experiment: Potency assay: pERK in NCI-H358 cells; assay type: cell-based, human; settings: Homo sapiens, NCI-H358; H358 KRAS G12C; read-out: pERK EC50
Outline: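 Compounds are dosed as ten 3-fold dilutions from a 10 mM DMSO stock, in duplicate, and left on cells for 4 h at 37 °C, 5% CO2. Phospho-ERK1/2 is then quantified by AlphaLISA SureFire Ultra or In-Cell Western, and IC50 is derived from a 4-parameter sigmoid against log concentration.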

NRAS WT = NRAS WT (Homo sapiens (Human), UniProt P01111+P62937); experiment: Ras-Raf (BRAF RBD) disruption / FRET / MOA assay, NRAS WT; assay type: biochemical; settings: read-out: IC50* NRAS WT FRET data
Outline: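 Compounds (30 μM top final, 10-point 3-fold dilutions) incubated 3 h at 25° C with nucleotide-loaded Ras, cyclophilin A and BRAF RBD. Detection with 10 nM anti-His Eu-W1024 and 50 nM anti-GST allophycocyanin over another 1.5 h. Lowered TR-FRET ratio relative to DMSO wells gives IC50.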

Sequence of NRAS WT (P01111 whole entry): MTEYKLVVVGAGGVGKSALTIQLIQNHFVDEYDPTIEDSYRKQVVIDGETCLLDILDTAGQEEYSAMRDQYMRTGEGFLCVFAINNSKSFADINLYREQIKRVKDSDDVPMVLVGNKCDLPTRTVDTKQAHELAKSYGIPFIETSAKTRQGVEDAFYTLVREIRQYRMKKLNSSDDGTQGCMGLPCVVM
Sequence of NRAS WT (P62937 whole entry): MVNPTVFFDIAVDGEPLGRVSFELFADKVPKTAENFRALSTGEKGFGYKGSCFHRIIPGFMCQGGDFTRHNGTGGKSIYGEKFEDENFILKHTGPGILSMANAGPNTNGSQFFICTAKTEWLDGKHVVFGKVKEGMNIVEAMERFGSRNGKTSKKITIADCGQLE

SMILES | EC50 [1] [µM] | IC50 (NRAS WT) [µM]
CCn1c(-c2cccnc2[C@H](C)OC)c2c3cc(ccc31)-c1cc(CF)cc(c1)C[C@H](NC(=O)[C@H](C(C)C)N1CC[C@]3(CCN(C(=O)C#CC(C)(C)N(C)C)C3)C1=O)C(=O)N1CCC[C@H](N1)C(=O)OCC(C)(C)C2 (atropisomer, axis not shown) [Example A673] | < 5 | 1 to 10
CO[C@@H](C)c1ncccc1-c1c2c3cc(ccc3n1CC(F)(F)F)-c1cccc(c1)C[C@H](NC(=O)[C@H](C(C)C)N1CC[C@]3(CCN(C(=O)C#CC(C)(C)N(C)C)C3)C1=O)C(=O)N1CCC[C@H](N1)C(=O)OCC(C)(C)C2 (atropisomer, axis not shown) [Example A689] | < 5 | 1 to 10
CCn1c(-c2cccnc2)c2c3cc(ccc31)-c1csc(c1)C[C@H](NC(=O)[C@H](C(C)C)N(C)C(=O)[C@H]1CCN(C(=O)C#CCN3CCOCC3)C1)C(=O)N1CCC[C@H](N1)C(=O)OCC(C)(C)C2 [Example A205] | < 5 | > 10
C=CC(=O)N1CC(N(C)C(=O)N(C)[C@H](C(=O)N[C@H]2Cc3nc(cs3)-c3ccc4c(c3)c(c(-c3cccnc3[C@H](C)OC)n4CC(F)(F)F)CC(C)(C)COC(=O)[C@@H]3CCCN(N3)C2=O)C(C)C)C1 (atropisomer, axis not shown) [Example A711] | < 5 | 0.01 to 0.1
CCn1c(-c2cccnc2[C@H](C)OC)c2c3cc(ccc31)N1CCO[C@@](C)(C[C@H](NC(=O)[C@H](C(C)C)N(C)C(=O)C3(F)CCN(C(=O)C#CC(C)(C)N(C)C)CC3)C(=O)N3CCC[C@H](N3)C(=O)OCC(C)(C)C2)C1 [Example A550] | < 5 | 0.1 to 1
CCn1c(-c2cccnc2[C@H](C)OC)c2c3cc(ccc31)-c1cccc(c1)C[C@H](NC(=O)[C@H](C(C)C)N(C)C(=O)C1(F)CCN(C(=O)/C=C/CN(C)C)CC1)C(=O)N1CCC[C@H](N1)C(=O)OCC(C)(C)C2 (atropisomer, axis not shown) [Example A685] | < 5 | 0.1 to 1
C=CC(=O)N1CCO[C@H]2CN(C(=O)N(C)[C@H](C(=O)N[C@H]3CC4=NN=C(O4)c4ccc5c(c4)c(c(-c4cccnc4[C@H](C)OC)n5CC(F)(F)F)CC(C)(C)COC(=O)[C@@H]4CCCN(N4)C3=O)C(C)C)C[C@H]21 (atropisomer, axis not shown) [Example A576] | < 5 | 1 to 10
C=CC(=O)N1CC2(CCCN2C(=O)N(C)[C@H](C(=O)N[C@H]2Cc3nc(cs3)-c3ccc4c(c3)c(c(-c3cccnc3[C@H](C)OC)n4CC)CC(C)(C)COC(=O)[C@@H]3CCCN(N3)C2=O)C(C)C)C1 (atropisomer, axis not shown) [Example A667] | < 5 | 0.01 to 0.1
C=CC(=O)N1C[C@H](C)N(C(=O)N(C)[C@H](C(=O)N[C@H]2Cc3nc(cs3)-c3ccc4c(c3)c(c(-c3cccnc3[C@H](C)OC)n4CC)CC(C)(C)COC(=O)[C@@H]3CCCN(N3)C2=O)C(C)C)C[C@@H]1C (atropisomer, axis not shown) [Example A385] | < 5 | 0.01 to 0.1
CO[C@@H](C)c1ncccc1-c1c2c3cc(ccc3n1CC(F)(F)F)-c1csc(n1)C[C@H](NC(=O)[C@H](C(C)C)N(C)C(=O)N1CCC3(CC1)CN(C(=O)/C=C/CF)C3)C(=O)N1CCC[C@H](N1)C(=O)OCC(C)(C)C2 (atropisomer, axis not shown) [Example A602] | < 5 | 0.01 to 0.1
